Results as given in PubChem BioAssay AID179 (DTP/NCI, 2004).
Active and inactive are the calls of the source.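 The calls were made as follows: active = compounds giving half or more protection of infected cells from virus-caused growth loss, again on retest; inactive = the rest.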 Where a SMILES comes first, the peptide text is derived from it. The star is where a group is joined. OSu = O=C1CCC(=O)N1O*; Bn = c1ccc(C*)cc1

Tested on: CEM cells HIV-1 protection, formazan growth assay
Experiment: NCI AIDS Antiviral Assay
Conditions: for IC50: measured here: growth of uninfected CEM cells
How it was run: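 Screen of anti-HIV-1 activity in human CEM cells using a formazan-based growth measurement at five drug concentrations. Hits with 50% or greater protection were repeated, and confirmation required reproducible complete protection.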

SMILES | outcome | EC50 | IC50
CCCCCCCCCOC(=S)NC | inactive |  | 
C[N+](C)(C)/N=C/c1ccc(O)c(O)c1 |  | > 200 µM | > 200 µM
CN(C)CCn1nc2n(c(=O)c1=O)CC(=O)N(C)c1ccc(Cl)cc1-2 |  | > 407 µM | > 407 µM
Cc1ccc(C2=[N+]([O-])c3ccccc3C2=O)cc1 | inactive |  | 
S=C(Nc1cccc(-c2ccccc2)c1)Nc1ccc(Br)cn1 |  | > 200 µM | 1.17 µM
Nc1ncnc2c1ncn2C1OC(C(O)CO)C(O)C1O (stereo not drawn) |  | > 200 µM | > 200 µM
NC(Cc1ccc(OCc2ccccc2)cc1)C(=O)NC(Cc1ccccc1)C(=O)ON1C(=O)CCC1=O (stereo not drawn) (H-Tyr(Bn)-Phe-OSu; configuration not given here) | inactive |  | 
Nn1c(SCc2nc3ccccc3[nH]2)nnc1-c1ccccc1 |  | > 200 µM | > 200 µM
O=C(O)c1ccc(CS(=O)(=O)c2ccccc2C(=O)O)c([N+](=O)[O-])c1 |  | > 692 µM | > 692 µM
CNC/C(Cl)=N/S(=O)(=O)c1ccc(C)cc1 |  | > 58.9 µM | 2.75 µM
NC(=O)C(=CN1C(=O)CC(=O)NC1=S)C(N)=O |  | > 200 µM | > 200 µM
CN(C(=O)C1=CCCCCC1)c1ccccc1Br |  | > 813 µM | 389 µM
O=C(O)C(Cc1ccc2c(c1)CCC2)(Cc1ccc2c(c1)CCC2)C(=O)O |  | > 200 µM | > 200 µM
CCC1(O)C(=O)OCc2c1cc1n(c2=O)Cc2cc3ccc(CO)cc3nc2-1 (stereo not drawn) |  | > 10 µM | 1.51 µM
CCOC(=O)C1=C(Nc2ccc(Br)cc2)OCC1=O | inactive |  | 
CC(Nc1cc(=O)n(C)c(=O)[nH]1)c1ccccc1 (stereo not drawn) |  | 55 µM | > 200 µM
CC(=O)NC1=CC(=O)C=C(Cl)C1=O |  | > 200 µM | 32.4 µM
CC(=O)OC1CSc2ccccc2N(C(C)=O)C1 (stereo not drawn) |  | > 355 µM | > 355 µM
CCN(CC)c1c(-c2c(OC(C)C)c(=O)c2=O)c(=O)n2ccsc2c1OC(C)=O |  | > 200 µM | 141 µM

SMILES | outcome | EC50 | IC50
CC(=O)Oc1ccc(/C=C/S(=O)(=O)CS(=O)(=O)/C=C/c2ccc(OC(C)=O)c(OC(C)=O)c2)cc1OC(C)=O |  | > 20 µM | 11 µM
CC(=O)C(N=Nc1ccc(S(=O)(=O)NC2ONC(C)C2C)cc1)C(=O)Nc1ccc(Cl)cc1 (stereo not drawn) |  | > 200 µM | 36.3 µM
COc1ccc(-n2nc3c(N)nnc-3nc2-c2ccccc2)cc1 |  | > 4.07 µM | > 4.07 µM
S=c1sc2ccccc2n1CN1CCN(Cc2ccccc2)CC1 |  | > 200 µM | > 200 µM
Cc1ccc(-c2n[nH]c(=O)n2NC(=O)c2ccccc2C(=O)O)cc1 | inactive |  | 
O=C(O)C(O)C(O)C(=O)O (stereo not drawn) |  | > 200 µM | > 200 µM
CC(O)CN1C(=O)C2C3C=CC(C3)C2C1=O (stereo not drawn) |  | > 200 µM | > 200 µM
COc1ccc(C2Oc3cc(OC)cc(O)c3C(=O)C2C2C(=O)c3c(O)cc(OC)cc3OC2c2ccc(O)cc2)cc1 (stereo not drawn) |  | > 200 µM | 37.2 µM
Cc1cc(S(=O)(=O)Nc2nc(N)n(-c3ccccn3)n2)c(S)cc1Cl |  | 115 µM | > 200 µM
O=S(=O)(F)c1cc(Cl)ccc1C[P+](c1ccccc1)(c1ccccc1)c1ccccc1 |  | > 200 µM | 64.6 µM
Brc1ccc2[nH]c3nc(N/N=C/c4cccnc4)nnc3c2c1 |  | > 200 µM | > 200 µM
CCCC1(CC(=O)O)OCCc2c1[nH]c1ccccc21 (stereo not drawn) |  | > 912 µM | 457 µM
CCCCN(S(=O)(=O)c1ccccc1)S(=O)(=O)c1ccccc1 |  | > 200 µM | > 200 µM
COC(=O)Cc1c([C@@]2(C)CCCC(C)(C)C2)ccc2c1C(=O)OC2 | inactive |  | 
Cc1ccc(N=Nc2c(C)n(-c3ccc4scnc4c3)c(=S)n(-c3ccccc3)c2=O)cc1 |  | > 75.9 µM | > 75.9 µM
CCOC(=O)c1cn2c(n1)sc1cc(OC)ccc12 |  | > 20 µM | 1.7 µM
COc1ccc(CC2(Cc3ccc(OC)cc3)CCOC2=O)cc1 |  | > 21.9 µM | > 21.9 µM
CC(=O)Nc1oc(C)nc1C#N |  | > 200 µM | > 200 µM
